According to paper PMC7993393, “8-Mercaptoguanine-based inhibitors of Mycobacterium tuberculosis dihydroneopterin aldolase: synthesis, in vitro inhibition and docking studies” (Journal of Enzyme Inhibition and Medicinal Chemistry, 2021):

What was measured:
MtFolB [1] = target: T1, MtFolB (Mycobacterium tuberculosis, UniProt P9WNC5); experiment: MtFolB aldolase activity inhibition, continuous fluorescence assay (IC50); format: biochemical
T1 construct: made in house

MtFolB [2] = target: T1, MtFolB; experiment: Mode of inhibition and inhibition constants on MtFolB aldolase activity (Lineweaver-Burk); format: biochemical; settings: towards DHNP; for Inhibition mode: Lineweaver-Burk plots; for Ki: enzyme-inhibitor complex, read-out: Kis; for Ki / Kii: 300 nM MtFolB; for Kii: enzyme-substrate-inhibitor complex
[3] = target: 6-hydroxymethyl-7,8-dihydropterin pyrophosphokinase from S. aureus (SaHPPK); set-up: method as in PMID 22276115; settings: read-out: IC50 against SaHPPK; cited from earlier work
SaFolB = system: SaFolB; set-up: method as in PMID 15027862; settings: read-out: IC50 against SaFolB; cited from earlier work

T1 sequence (P9WNC5 whole entry): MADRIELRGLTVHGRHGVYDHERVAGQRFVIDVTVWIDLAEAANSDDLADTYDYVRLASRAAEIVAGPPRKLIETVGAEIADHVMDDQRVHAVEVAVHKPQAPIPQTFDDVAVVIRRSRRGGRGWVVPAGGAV

Row | SMILES | IC50 (MtFolB [1]) [µM] | melting point [°C] | other results
1 | Nc1nc2[nH]c(SCC(=O)NCc3ccccc3)nc2c(=O)[nH]1 [Compound 4c, 2-((2-Amino-6-oxo-6,9-dihydro-1H-purin-8-yl)thio)-N-benzylacetamide] | 12.3 |  | 
2 | Nc1nc2[nH]c(SCc3ccc(Cl)cc3)nc2c(=O)[nH]1 [Compound 2f, 2-Amino-8-((4-chlorobenzyl)thio)-1,9-dihydro-6H-purin-6-one] | 2.2 | 291 to 294 | 
3 | Nc1nc2[nH]c(SCC(=O)Nc3ccc(Cl)cc3)nc2c(=O)[nH]1 [Compound 4e, 2-((2-Amino-6-oxo-6,9-dihydro-1H-purin-8-yl)thio)-N-(4-chlorophenyl)acetamide] | 0.8 |  | 
4 | Nc1nc2nc(S)[nH]c2c(=O)[nH]1 [8-MG (1), 8-mercaptoguanine] | 0.3 |  | Inhibition mode (MtFolB [2]): Non-competitive; Ki (MtFolB [2]): 0.3 ± 0.1 µM; Kii (MtFolB [2]): 0.6 ± 0.1 µM; IC50 [3]: 41 µM; IC50 (SaFolB): 1 µM
5 | Nc1nc2[nH]c(SCc3ccc(Cl)c(Cl)c3)nc2c(=O)[nH]1 [Compound 2g] | 5.5 | 290 to 291 | IC50 fold higher (MtFolB [1]; IC50 compared to monosubstituted analog 2f): 2.5 fold
6 | Nc1nc2[nH]c(SCC(=O)Nc3ccc(F)cc3)nc2c(=O)[nH]1 [Compound 4d, 2-((2-Amino-6-oxo-6,9-dihydro-1H-purin-8-yl)thio)-N-(4-fluorophenyl)acetamide] | 2 |  | 
7 | CCCc1ccc(NC(=O)CSc2nc3c(=O)[nH]c(N)nc3[nH]2)cc1 [Compound 4g, 2-((2-Amino-6-oxo-6,9-dihydro-1H-purin-8-yl)thio)-N-(4-propylphenyl)acetamide] | 0.9 |  | 
8 | Nc1nc2[nH]c(SCC(=O)Nc3ccc4ccccc4c3)nc2c(=O)[nH]1 [Compound 4b, 2-((2-Amino-6-oxo-6,9-dihydro-1H-purin-8-yl)thio)-N-(naphthalen-2-yl)acetamide] | 0.7 | 286 to 289 | 
9 | CCCCCCCc1ccc(NC(=O)CSc2nc3c(=O)[nH]c(N)nc3[nH]2)cc1 [Compound 4h, 2-((2-Amino-6-oxo-6,9-dihydro-1H-purin-8-yl)thio)-N-(4-heptylphenyl)acetamide] | 0.4 | > 310 | Inhibition mode (MtFolB [2]): Non-competitive; Ki (MtFolB [2]): 0.5 ± 0.1 µM; Kii (MtFolB [2]): 1.2 ± 0.2 µM
10 | Nc1nc2[nH]c(SCC(=O)c3ccccc3)nc2c(=O)[nH]1 [Compound 3a, 2-Amino-8-((2-oxo-2-phenylethyl)thio)-1,9-dihydro-6H-purin-6-one] | 0.9 | > 310 | 
11 | Nc1nc2[nH]c(SCc3ccccc3)nc2c(=O)[nH]1 [Compound 2a, 2-Amino-8-(benzylthio)-1,9-dihydro-6H-purin-6-one] | 7.1 |  | 
12 | Nc1nc2[nH]c(SCc3ccccc3Cl)nc2c(=O)[nH]1 [Compound 2e, 2-Amino-8-((2-chlorobenzyl)thio)-1,9-dihydro-6H-purin-6-one] | 4.2 |  | 
13 | Nc1nc2[nH]c(SCC(=O)Nc3ccccc3)nc2c(=O)[nH]1 [Compound 4a, 2-((2-Amino-6-oxo-6,9-dihydro-1H-purin-8-yl)thio)-N-phenylacetamide] | 2.2 |  | 
14 | Nc1nc2[nH]c(SCC(=O)Nc3ccc(Br)cc3)nc2c(=O)[nH]1 [Compound 4f, 2-((2-Amino-6-oxo-6,9-dihydro-1H-purin-8-yl)thio)-N-(4-bromophenyl)acetamide] | 0.5 | > 310 | Inhibition mode (MtFolB [2]): Competitive; Ki (MtFolB [2]): 0.1 ± 0.03 µM
15 | Nc1nc2[nH]c(SCc3ccc(Br)cc3)nc2c(=O)[nH]1 [Compound 2h, 2-Amino-8-((4-bromobenzyl)thio)-1,9-dihydro-6H-purin-6-one] | 3 |  | 
16 | Nc1nc2[nH]c(SCc3ccccc3F)nc2c(=O)[nH]1 [Compound 2c, 2-Amino-8-((2-fluorobenzyl)thio)-1,9-dihydro-6H-purin-6-one] | 8 | 289 to 290 | 
17 | Nc1nc2[nH]c(SCc3ccc(F)cc3)nc2c(=O)[nH]1 [Compound 2d, 2-Amino-8-((4-fluorobenzyl)thio)-1,9-dihydro-6H-purin-6-one] | 8 | 299 to 300 | 
18 | Nc1nc2[nH]c(SCC(=O)c3ccc(Cl)cc3)nc2c(=O)[nH]1 [Compound 3b, 2-Amino-8-((2–(4-chlorophenyl)-2-oxoethyl)thio)-1,9-dihydro-6H-purin-6-one] | 0.3 | 300 to 316 | Inhibition mode (MtFolB [2]): Non-competitive; Ki (MtFolB [2]): 0.4 ± 0.1 µM; Kii (MtFolB [2]): 0.9 ± 0.2 µM
19 | Nc1nc2[nH]c(SCc3ccc4ccccc4c3)nc2c(=O)[nH]1 [Compound 2b, 2-Amino-8-((naphthalen-2-ylmethyl)thio)-1,9-dihydro-6H-purin-6-one] | 1.3 | 286 to 287 | Improvement of activity (fold) (MtFolB [1]; IC50 compared to benzyl derivative 2a): more than 5 fold
20 | COc1ccccc1C(=O)CSc1nc2nc(N)[nH]c(=O)c2[nH]1 [Compound 3c, 2-Amino-8-((2–(2-methoxyphenyl)-2-oxoethyl)thio)-1,9-dihydro-6H-purin-6-one] | 1.3 |  | 
